Results published in patent US9193715B2, “Regulation of cholesterol homeostasis” (University of Notre Dam du Lac, priority 2012, dated 2015).

What was measured:
[1] = tested on: NPC1-mutant human fibroblasts (GM03123); test: Filipin fluorescent imaging of intracellular cholesterol in NPC1-mutant human fibroblasts; format: cell-based
Protocol: GEX1A was evaluated for its ability to lower intracellular cholesterol levels in NPC1-mutant human fibroblasts (GM03123) through a previously described fluorescent imaging method (Pipalia et al., Automated microscopy screening for compounds that partially revert cholesterol accumulation in Niemann-Pick C cells. J. Lipid Res. (2006) 47: 284-301.).
Compounds described herein were evaluated for their ability to lower intracellular cholesterol levels in NPC1-mutant human fibroblasts (GM03123) by the fluorescent imaging methods of Pipalia and coworkers.

human endothelial cells = test: Filipin staining of cholesterol in itraconazole-induced NPC-like phenotype; format: cell-based
Protocol: Itraconazole, an anti-fungal agent, interferes with cholesterol trafficking and induces an NPC-like phenotype in human endothelial cells. Itraconazole (200 nM) was administered in two experiments with 100 nM GEX1A and 10 nM GEX1A, respectively. Filipin is used as a histochemical stain to visualize cholesterol in the cell line.

| SMILES | correction of the NPC1 phenotype (filipin staining in the cell) ([1]; GM03123 cells, fluorescent imaging, FIG. 2) | potency in the classic filipin assay relative to HDAC inhibitors ([1]; NPC cells, preliminary studies) | amount of cholesterol in cell line (filipin stain) (human endothelial cells; 10 nM GEX1A with itraconazole 200 nM) | amount of cholesterol in cell line (filipin stain) (human endothelial cells; 100 nM GEX1A with itraconazole 200 nM) | IC50 (human endothelial cells; Homo sapiens, Endothelial cell, filipin cholesterol staining, itraconazole 200 nM) | correction of the NPC1 phenotype ([1]; 10 nM to 100 nM, time points of 24-72 hours, postulated) |
| --- | --- | --- | --- | --- | --- | --- |
| CO[C@H]([C@@H](C)[C@H]1OC1(C)C[C@H](C)/C=C/C=C(\C)[C@H]1O[C@@H](CC(=O)O)CC[C@@H]1C)[C@@H](C)O (stereo partly drawn) [GEX1A] | correction of the NPC1 phenotype | equipotent to HDAC inhibitors | significant decrease | significant decrease | 6 nM | – |
| CC[C@H](O)[C@@H](C)[C@H]1O[C@@H]1C[C@H](C)/C=C/C=C(\C)[C@H]1OC(=O)C[C@H](O)CC[C@@](C)(O)[C@@H](OC(C)=O)/C=C/[C@@H]1C [Pladienolide, pladienolide B] | – | – | – | – | – | significant correction of the NPC1 phenotype |
